Common to all, as to type: cell-based
The target in one assay is T1, human TLR7 (Homo sapiens, UniProt Q9NYK1).
T1 construct: host or cells: HEK-Blue cells
T1 sequence (Q9NYK1 27-1049): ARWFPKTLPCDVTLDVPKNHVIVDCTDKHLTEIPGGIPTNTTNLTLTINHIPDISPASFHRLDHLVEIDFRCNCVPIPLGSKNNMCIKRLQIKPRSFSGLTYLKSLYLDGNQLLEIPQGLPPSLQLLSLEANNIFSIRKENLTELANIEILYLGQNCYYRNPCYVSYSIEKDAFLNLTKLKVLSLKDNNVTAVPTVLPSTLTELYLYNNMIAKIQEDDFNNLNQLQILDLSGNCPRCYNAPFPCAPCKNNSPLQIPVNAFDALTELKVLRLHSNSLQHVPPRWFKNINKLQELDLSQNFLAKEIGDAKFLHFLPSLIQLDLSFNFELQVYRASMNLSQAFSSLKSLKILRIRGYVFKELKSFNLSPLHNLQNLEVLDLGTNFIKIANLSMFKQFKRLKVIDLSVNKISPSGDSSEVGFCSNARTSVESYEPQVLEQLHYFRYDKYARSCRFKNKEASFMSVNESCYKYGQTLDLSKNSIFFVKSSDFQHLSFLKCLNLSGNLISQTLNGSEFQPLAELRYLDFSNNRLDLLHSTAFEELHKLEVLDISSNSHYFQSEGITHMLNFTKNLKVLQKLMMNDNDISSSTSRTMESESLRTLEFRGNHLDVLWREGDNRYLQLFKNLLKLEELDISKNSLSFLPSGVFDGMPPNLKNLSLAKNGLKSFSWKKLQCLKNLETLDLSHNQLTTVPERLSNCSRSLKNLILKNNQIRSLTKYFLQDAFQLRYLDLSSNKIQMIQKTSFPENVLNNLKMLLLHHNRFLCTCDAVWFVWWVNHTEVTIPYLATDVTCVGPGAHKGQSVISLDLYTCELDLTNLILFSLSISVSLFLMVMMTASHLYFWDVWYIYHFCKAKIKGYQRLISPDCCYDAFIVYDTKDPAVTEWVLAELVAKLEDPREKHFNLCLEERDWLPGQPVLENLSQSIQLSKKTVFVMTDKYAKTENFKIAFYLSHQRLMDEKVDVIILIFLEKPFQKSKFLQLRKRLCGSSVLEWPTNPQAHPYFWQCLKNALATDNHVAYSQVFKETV
Description: TLR7 inhibition reporter assay (HEK-Blue SEAP reporter). As to conditions: HEK-Blue cells overexpressing human TLR7; gardiquimod 7.5 μM; 22 hour incubation. In short, it runs like this: (§1)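 Human TLR7/8/9 HEK-Blue reporter lines; dose range 0.05 nM–50 μM; 30 min RT preincubation; stimulus gardiquimod 7.5 μM / R848 15.9 μM / ODN2006 5 nM respectively; 22 h, 37 °C; SEAP detected colorimetrically.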
(In general: In a reporter assay the amount or activity of a reporter protein is the signal.)

The next assay addresses T2, human TLR8 (Homo sapiens, UniProt Q9NR97).
T2 construct: host or cells: HEK-Blue cells
T2 sequence (Q9NR97 27-1041): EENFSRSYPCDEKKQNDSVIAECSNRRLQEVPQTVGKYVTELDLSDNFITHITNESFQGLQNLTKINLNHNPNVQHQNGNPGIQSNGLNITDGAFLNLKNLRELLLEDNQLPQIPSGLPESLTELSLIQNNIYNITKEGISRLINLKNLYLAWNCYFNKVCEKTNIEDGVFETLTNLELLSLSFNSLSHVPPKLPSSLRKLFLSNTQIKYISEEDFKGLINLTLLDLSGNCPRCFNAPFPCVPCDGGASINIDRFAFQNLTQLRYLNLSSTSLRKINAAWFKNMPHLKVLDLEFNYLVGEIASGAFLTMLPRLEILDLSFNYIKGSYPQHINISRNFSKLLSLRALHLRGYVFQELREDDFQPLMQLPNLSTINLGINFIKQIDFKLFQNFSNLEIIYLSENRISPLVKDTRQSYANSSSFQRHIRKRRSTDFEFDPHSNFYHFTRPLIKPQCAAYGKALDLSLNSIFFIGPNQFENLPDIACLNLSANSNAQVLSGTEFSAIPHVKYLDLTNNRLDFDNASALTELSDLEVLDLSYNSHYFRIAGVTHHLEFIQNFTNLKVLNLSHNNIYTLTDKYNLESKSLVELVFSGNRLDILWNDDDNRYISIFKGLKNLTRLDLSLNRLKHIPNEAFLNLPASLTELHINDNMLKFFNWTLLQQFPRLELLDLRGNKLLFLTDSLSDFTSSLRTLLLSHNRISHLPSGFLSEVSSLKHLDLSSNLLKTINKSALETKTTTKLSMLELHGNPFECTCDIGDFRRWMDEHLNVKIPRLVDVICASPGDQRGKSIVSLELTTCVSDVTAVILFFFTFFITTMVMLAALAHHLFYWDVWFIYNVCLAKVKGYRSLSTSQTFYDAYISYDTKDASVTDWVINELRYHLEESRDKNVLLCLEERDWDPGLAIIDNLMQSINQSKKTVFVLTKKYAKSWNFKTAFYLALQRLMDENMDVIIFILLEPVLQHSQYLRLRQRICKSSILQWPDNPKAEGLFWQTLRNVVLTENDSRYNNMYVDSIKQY
The assay is described as follows: TLR8 inhibition reporter assay (HEK-Blue SEAP reporter). As to conditions: HEK-Blue cells overexpressing human TLR8; R848 15.9 μM; 22 hour incubation. As to the method:
TLR7/8/9 Inhibition Reporter Assays
HEK-Blue™-cells (Invivogen) overexpressing human TLR7, TLR8 or TLR9 receptors were used for screening inhibitors of these receptors using an inducible SEAP (secreted embryonic alkaline phosphatase) reporter gene under the control of the IFN-β minimal promoter fused to five NF-κB and AP-1-binding sites. Briefly, cells are seeded into Greiner 384 well plates (15000 cells per well for TLR7, 20,000 for TLR8 and 25,000 for TLR9) and then treated with test compounds in DMSO to yield a final dose response concentration range of 0.05 nM-50 μM. After a 30 minute compound pre-treatment at room temperature, the cells are then stimulated with a TLR7 ligand (gardiquimod at a final concentration of 7.5 μM), TLR8 ligand (R848 at a final concentration of 15.9 μM) or TLR9 ligand (ODN2006 at a final concentration of 5 nM) to activate NF-κB and AP-1 which induce the production of SEAP. After a 22 hour incubation at 37° C., 5% CO2, SEAP levels are determined with the addition of HEK-Blue™ Detection reagent (Invivogen), a cell culture medium that allows for detection of SEAP, according to manufacturer's specifications. The percent inhibition is determined as the % reduction in the HEK-Blue signal present in wells treated with agonist plus DMSO alone compared to wells treated with a known inhibitor.

The target of the next assay is T3, human TLR9 (Homo sapiens, UniProt Q9NR96).
T3 construct: host or cells: HEK-Blue cells
T3 sequence (Q9NR96 26-1032): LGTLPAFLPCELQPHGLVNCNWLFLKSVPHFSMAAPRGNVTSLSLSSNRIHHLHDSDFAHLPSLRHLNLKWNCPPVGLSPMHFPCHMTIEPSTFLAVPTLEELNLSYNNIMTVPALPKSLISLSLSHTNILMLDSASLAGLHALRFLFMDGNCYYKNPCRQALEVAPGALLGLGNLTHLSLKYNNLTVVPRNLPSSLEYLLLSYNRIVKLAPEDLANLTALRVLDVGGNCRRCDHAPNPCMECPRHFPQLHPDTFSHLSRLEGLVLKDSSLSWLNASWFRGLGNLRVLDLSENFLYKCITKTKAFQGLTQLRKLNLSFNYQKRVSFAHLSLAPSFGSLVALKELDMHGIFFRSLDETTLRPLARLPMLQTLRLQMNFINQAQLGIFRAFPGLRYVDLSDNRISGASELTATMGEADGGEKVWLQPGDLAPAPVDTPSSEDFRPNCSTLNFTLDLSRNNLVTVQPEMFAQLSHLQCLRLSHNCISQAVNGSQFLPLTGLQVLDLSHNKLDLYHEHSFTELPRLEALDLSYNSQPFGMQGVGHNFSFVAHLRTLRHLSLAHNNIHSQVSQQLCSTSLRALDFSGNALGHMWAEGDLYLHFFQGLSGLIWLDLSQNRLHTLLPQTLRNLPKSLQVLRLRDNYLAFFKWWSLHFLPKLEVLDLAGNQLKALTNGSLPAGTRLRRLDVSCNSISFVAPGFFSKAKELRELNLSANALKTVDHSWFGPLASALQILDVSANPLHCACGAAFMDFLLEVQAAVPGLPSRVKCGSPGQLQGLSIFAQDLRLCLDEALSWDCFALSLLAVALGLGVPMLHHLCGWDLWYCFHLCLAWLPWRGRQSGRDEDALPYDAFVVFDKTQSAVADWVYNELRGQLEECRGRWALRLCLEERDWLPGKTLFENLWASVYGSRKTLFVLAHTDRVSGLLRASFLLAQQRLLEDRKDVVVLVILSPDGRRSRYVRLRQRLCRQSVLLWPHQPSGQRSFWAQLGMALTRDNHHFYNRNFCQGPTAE
Description: TLR9 inhibition reporter assay (HEK-Blue SEAP reporter). Particulars: HEK-Blue cells overexpressing human TLR9; ODN2006 5 nM; 22 hour incubation. The gist of the method: as §1

Structures are written as SMILES.

One may read the IC50 as the concentration at which inhibition is half-maximal. Read a high IC50 as weaker potency. With `COc1ccc(-c2[nH]c3ccc(N4CCC(N5CCN(CCCN6CCCC6)CC5)CC4)cc3c2C(C)C)cc1OC` [Example 102, 2-(3,4-dimethoxyphenyl)-3-isopropyl-5-(4-(4-(3-(pyrrolidin-1-yl)propyl)piperazin-1-yl)piperidin-1-yl)-1H-indole], the IC50 worked out at 16 nM against human TLR7, 28 nM on human TLR8 and 413 nM against human TLR9.
The matching figures for `COc1ccc(-c2[nH]c3ccc(N4CCC(N5CCN(C6CCN(C)CC6)CC5)CC4)cc3c2C(C)C)cc1OC` [Example 99, 2-(3,4-dimethoxyphenyl)-3-isopropyl-5-(4-(4-(1-methylpiperidin-4-yl)piperazin-1-yl)piperidin-1-yl)-1H-indole]: 11 nM, 62 nM and 538 nM.
For `COc1ccc(-c2[nH]c3ccc(N4CCC(N5CCN(C(C)(C)C)CC5)CC4)cc3c2C(C)C)cc1OC` [Example 90, 5-(4-(4-(tert-butyl)piperazin-1-yl)piperidin-1-yl)-2-(3,4-dimethoxyphenyl)-3-isopropyl-1H-indole], the IC50 against human TLR7 is 37 nM; against human TLR8 it was 19 nM; against human TLR9, 809 nM.
Regarding `COc1ccc(-c2[nH]c3ccc(NC4CCC(N5CCN(C6CCN(C)CC6)CC5)CC4)cc3c2C(C)C)cc1OC` (stereo not drawn) [Example 62, 2-(3,4-dimethoxyphenyl)-3-isopropyl-N-(4-(4-(1-methylpiperidin-4-yl)piperazin-1-yl)cyclohexyl)-1H-indol-5-amine], the IC50 against human TLR7 is 211 nM; on human TLR8, 212 nM; against human TLR9 it was 323 nM.
Consider `COc1ccc(-c2[nH]c3ccc(N4CCC(C5CCN(CCC(F)(F)F)CC5)CC4)cc3c2C(C)C)cc1OC` [Example 97, 2-(3,4-dimethoxyphenyl)-3-isopropyl-5-(1′-(3,3,3-trifluoropropyl)-[4,4′-bipiperidin]-1-yl)-1H-indole], for which the values for the IC50 against human TLR7, against human TLR8 and at human TLR9 were 862 nM, 1910 nM and 6610 nM, respectively.
The matching figures for `COc1ccc(-c2[nH]c3ccc(N4CCN(C5CCN(C)CC5)CC4)cc3c2C)cc1OC` [Example 149, 2-(3,4-dimethoxyphenyl)-3-methyl-5-(4-(1-methylpiperidin-4-yl)piperazin-1-yl)-1H-indole]: 681 nM, 62 nM and 727 nM.
Take `COc1ccc(-c2[nH]c3ccc(N4CCC(C5CCN(Cc6cccn6C)CC5)CC4)cc3c2C(C)C)cc1OC` [Example 96, 2-(3,4-dimethoxyphenyl)-3-isopropyl-5-(1′-((1-methyl-1H-pyrrol-2-yl)methyl)-[4,4′-bipiperidin]-1-yl)-1H-indole]: the IC50 at human TLR7 came to 436 nM; against human TLR8, 1050 nM; at human TLR9, 2840 nM.
For `COc1ccc(-c2[nH]c3ccc(NC(=O)[C@@H](N)CCCCN)cc3c2C(C)C)cc1OC` [Example 23, (S)-2,6-diamino-N-(2-(3,4-dimethoxyphenyl)-3-isopropyl-1H-indol-5-yl)hexanamide], the IC50 was 969 nM against human TLR7, 433 nM at human TLR8 and above 50000 nM against human TLR9.
Consider `CCc1c(-c2ccc(OC)c(OC)c2)[nH]c2cc(C)c(N3CCN(CCNC)CC3)cc12` [Example 144, 2-(4-(2-(3,4-dimethoxyphenyl)-3-ethyl-6-methyl-1H-indol-5-yl)piperazin-1-yl)-N-methylethan-1-amine], for which the results for the IC50 at human TLR7, against human TLR8 and against human TLR9 were 45 nM, 45 nM and 952 nM, respectively.
For `COc1ccc(-c2[nH]c3ccc(N4CCC(N(C)CCCN(C)C)CC4)cc3c2C(C)C)cc1OC` [Example 81, N1-(1-(2-(3,4-dimethoxyphenyl)-3-isopropyl-1H-indol-5-yl)piperidin-4-yl)-N1,N3,N3-trimethylpropane-1,3-diamine], the concentration for half-maximal inhibition (IC50) at human TLR7 worked out at 44 nM; at human TLR8, 10 nM; against human TLR9 it was 1050 nM.

The record behind these values is US11306092B2, “Amino indole compounds useful as TLR inhibitors” (BRISTOL-MYERS SQUIBB COMPANY, priority 2017, dated 2022).
